Laboratory results: paper PMC9090415, “Discovery of small molecule inhibitors of Plasmodium falciparum apicoplast DNA polymerase” (Journal of Enzyme Inhibition and Medicinal Chemistry, 2022)

Molecular target: P. falciparum apicoplast DNA polymerase (Pf-apPOL) (Plasmodium falciparum, UniProt Q8ILY1)
Experiment: Fluorescence-based high-throughput DNA polymerase assay (molecular beacon), primary screen and dose-response
Type: biochemical
Settings: for DNA Pol: 90 min, 10 µM; for % inhibition apPOL 180' 2.5 / % inhibition apPOL 180' 5 / % inhibition apPOL 180' 10 / % inhibition apPOL 180' 20 / % inhibition apPOL 180' 40 / % inhibition apPOL 180' 80: read at 180'
Summary of the method: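 Single-point screening used 10 µM compound with 20 nM polymerase, 20 nM hairpin substrate and 6 µM dNTPs for 90 min at 25 °C. Confirmatory titrations (2.5–80 µM) followed fluorescence at three times, and IC50 was derived from a fit including a cooperativity term n.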

P. falciparum apicoplast DNA polymerase (Pf-apPOL), sequence (Q8ILY1 entry or part of it): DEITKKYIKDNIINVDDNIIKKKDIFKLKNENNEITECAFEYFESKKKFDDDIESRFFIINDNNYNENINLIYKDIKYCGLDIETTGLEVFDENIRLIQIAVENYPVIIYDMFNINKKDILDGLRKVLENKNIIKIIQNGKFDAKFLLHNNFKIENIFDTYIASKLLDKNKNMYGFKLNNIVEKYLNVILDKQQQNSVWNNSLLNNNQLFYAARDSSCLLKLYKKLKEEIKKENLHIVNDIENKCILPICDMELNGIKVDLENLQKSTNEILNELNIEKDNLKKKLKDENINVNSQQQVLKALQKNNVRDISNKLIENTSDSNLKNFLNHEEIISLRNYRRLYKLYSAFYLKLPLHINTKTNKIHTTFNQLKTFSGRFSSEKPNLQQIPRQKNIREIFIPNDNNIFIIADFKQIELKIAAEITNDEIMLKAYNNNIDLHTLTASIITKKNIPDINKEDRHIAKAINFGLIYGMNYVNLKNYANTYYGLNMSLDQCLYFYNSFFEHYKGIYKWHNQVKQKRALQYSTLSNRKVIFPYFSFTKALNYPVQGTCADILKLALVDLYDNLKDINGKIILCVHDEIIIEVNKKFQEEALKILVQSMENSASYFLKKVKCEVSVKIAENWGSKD

## CC(=O)Nc1cc(C(=O)c2cccs2)nn(-c2ccc(Cl)cc2)c1=O [KU0267905]
186 hits, DNA Pol (screen value), unit not given
  DNA Pol: 68
'DNA Pol' (screen value), unit not given
  DNA Pol: 68
DRC-1, read at 10', concentration 2.5
  % inhibition Apo pol 10' 2.5: -1.115%
DRC-1, read at 10', concentration 5
  % inhibition Apo pol 10' 5: 9.678%
DRC-1, read at 10', concentration 10
  % inhibition Apo pol 10' 10: 23.8402%
DRC-1, read at 10', concentration 20
  % inhibition Apo pol 10' 20: 30.1491%
DRC-1, read at 10', concentration 40
  % inhibition Apo pol 10' 40: 60.7427%
DRC-1, read at 10', concentration 80
  % inhibition Apo pol 10' 80: 68.442%
DRC-1, read at 90', concentration 2.5
  % inhibition Apol 90' 2.5: -1.383%
DRC-1, read at 90', concentration 5
  % inhibition Apol 90' 5: -2.969%
DRC-1, read at 90', concentration 10
  % inhibition Apol 90' 10: 7.904%
DRC-1, read at 90', concentration 20
  % inhibition Apol 90' 20: 14.4381%
DRC-1, read at 90', concentration 40
  % inhibition Apol 90' 40: 45.4354%
DRC-1, read at 90', concentration 80
  % inhibition Apol 90' 80: 70.7976%
DRC-1, concentration 2.5
  % inhibition apPOL 180' 2.5: -1.959%
DRC-1, concentration 5
  % inhibition apPOL 180' 5: -7.949%
DRC-1, concentration 10
  % inhibition apPOL 180' 10: -1.249%
DRC-1, concentration 20
  % inhibition apPOL 180' 20: 2.642%
DRC-1, concentration 40
  % inhibition apPOL 180' 40: 28.3479%
DRC-1, concentration 80
  % inhibition apPOL 180' 80: 62.799%
DRC-2, concentration 2.5
  % inhibition Apo pol 5': 7%
  % inhibition apPOL 180' 2.5: -1.41%
DRC-2, concentration 5
  % inhibition Apol 40': 7%
  % inhibition ApPOL 90': 4%
  % inhibition apPOL 180' 5: 0.65%
DRC-2, concentration 80
  % inhibition Apol 40': 52%
  % inhibition apPOL 180': 52%
  % inhibition apPOL 180' 80: 52%
DRC-2, concentration 10
  % inhibition apPOL 180': 4%
  % inhibition apPOL 180' 10: 4%
DRC-2, read at 5', concentration 2.5
  % inhibition Apo pol 5' 2.5: 7%
DRC-2, read at 5', concentration 5
  % inhibition Apo pol 5' 5: 11%
DRC-2, read at 5', concentration 10
  % inhibition Apo pol 5' 10: 21%
DRC-2, read at 5', concentration 20
  % inhibition Apo pol 5' 20: 29%
DRC-2, read at 5', concentration 40
  % inhibition Apo pol 5' 40: 40%
DRC-2, read at 5', concentration 80
  % inhibition Apo pol 5' 80: 36%
DRC-2, read at 40', concentration 2.5
  % inhibition Apol 40' 2.5: 4.64%
DRC-2, read at 40', concentration 5
  % inhibition Apol 40' 5: 7%
DRC-2, read at 40', concentration 10
  % inhibition Apol 40' 10: 15%
DRC-2, read at 40', concentration 20
  % inhibition Apol 40' 20: 25%
DRC-2, read at 40', concentration 40
  % inhibition Apol 40' 40: 44%
DRC-2, read at 40', concentration 80
  % inhibition Apol 40' 80: 52%
DRC-2, read at 90', concentration 2.5
  % inhibition ApPOL 90' 2.5: 3.39%
DRC-2, read at 90', concentration 5
  % inhibition ApPOL 90' 5: 4%
DRC-2, read at 90', concentration 10
  % inhibition ApPOL 90' 10: 12%
DRC-2, read at 90', concentration 20
  % inhibition ApPOL 90' 20: 19%
DRC-2, read at 90', concentration 40
  % inhibition ApPOL 90' 40: 42%
DRC-2, read at 90', concentration 80
  % inhibition ApPOL 90' 80: 55%
DRC-2, concentration 20
  % inhibition apPOL 180' 20: 9%
DRC-2, concentration 40
  % inhibition apPOL 180' 40: 31%

## O=C1N=C(Nc2cccc(Cl)c2Cl)S/C1=C\c1ccco1 [Molecule 3, O=C1N=C(S/C/1=C\c1ccco1)Nc1cccc(c1Cl)Cl]
'DNA Pol' of the 186 hits list (primary screen value)
  DNA Pol: 74
DNA Pol (primary screen value)
  DNA Pol: 74
DRC-1, concentration 2.5
  % inhibition Apo pol 10': 26.4621%
  % inhibition Apol 90': 14.8677%
  % inhibition apPOL 180': 3.99%
DRC-1, concentration 5
  % inhibition Apo pol 10': 50.3585%
  % inhibition Apol 90': 38.7366%
  % inhibition apPOL 180': 24.8255%
DRC-1, concentration 10
  % inhibition Apo pol 10': 71.7156%
  % inhibition Apol 90': 64.2373%
  % inhibition apPOL 180': 52.4106%
DRC-1, concentration 20
  % inhibition Apo pol 10': 70.1447%
  % inhibition Apol 90': 68.803%
  % inhibition apPOL 180': 60.3634%
DRC-1, concentration 40
  % inhibition Apo pol 10': 64.4851%
  % inhibition Apol 90': 72.5757%
  % inhibition apPOL 180': 70.3618%
DRC-1, concentration 80
  % inhibition Apo pol 10': 49.9988%
  % inhibition Apol 90': 68.4026%
  % inhibition apPOL 180': 71.4479%
DRC-2, concentration 2.5
  % inhibition Apo pol 5': 35%
  % inhibition Apol 40': 37%
  % inhibition ApPOL 90': 34%
  % inhibition apPOL 180': 22%
DRC-2, concentration 5
  % inhibition Apo pol 5': 38%
  % inhibition Apol 40': 44%
  % inhibition ApPOL 90': 42%
  % inhibition apPOL 180': 31%
DRC-2, concentration 10
  % inhibition Apo pol 5': 42%
  % inhibition Apol 40': 58%
  % inhibition ApPOL 90': 59%
  % inhibition apPOL 180': 54%
DRC-2, concentration 20
  % inhibition Apo pol 5': 31%
  % inhibition Apol 40': 56%
  % inhibition ApPOL 90': 60%
  % inhibition apPOL 180': 62%
DRC-2, concentration 40
  % inhibition Apo pol 5': 11%
  % inhibition Apol 40': 44%
  % inhibition ApPOL 90': 53%
  % inhibition apPOL 180': 60%
DRC-2, concentration 80
  % inhibition Apo pol 5': -21%
  % inhibition Apol 40': 25%
  % inhibition ApPOL 90': 40%
  % inhibition apPOL 180': 53%
